According to patent publication US6432958B1, “2-piperazinoalkylaminobenzoazole derivatives: dopamine receptor subtype specific ligands” (Neurogen Corporation, priority 1998, dated 2002):

What was measured:
[1] = target: T1, D4 receptors from human (Homo sapiens, UniProt P21917); experiment: D4 receptor binding assay (3H-YM 09151-2 displacement); details: COS cells containing recombinantly produced human D4 receptors; 0.5 nM 3H-YM 09151-2
T1 construct: expressed in transfected cells; host or cells: COS cells
T1 sequence (P21917 1-419): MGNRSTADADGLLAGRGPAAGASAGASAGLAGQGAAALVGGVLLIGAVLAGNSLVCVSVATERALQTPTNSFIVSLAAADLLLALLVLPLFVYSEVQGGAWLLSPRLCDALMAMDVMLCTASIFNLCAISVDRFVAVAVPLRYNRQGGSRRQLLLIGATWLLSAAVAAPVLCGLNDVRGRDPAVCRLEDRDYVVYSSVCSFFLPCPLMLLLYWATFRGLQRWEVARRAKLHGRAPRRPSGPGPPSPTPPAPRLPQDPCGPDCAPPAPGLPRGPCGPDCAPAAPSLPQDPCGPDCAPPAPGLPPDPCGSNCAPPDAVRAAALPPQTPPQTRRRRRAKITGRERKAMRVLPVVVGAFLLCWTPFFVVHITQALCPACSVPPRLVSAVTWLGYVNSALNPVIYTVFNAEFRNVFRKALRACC
Procedure: (§1) Assays for D2, D3 and D4 Receptor Binding Activity
(§2) Pellets of COS cells containing recombinantly produced D2 or D4 receptors from human are used for the assays. The sample is homogenized in 100 volumes (w/vol) of 0.05 M Tris HCl buffer at 4° C. and pH 7.4. The sample is then centrifuged at 30,000×g and resuspended and rehomogenized. The sample is then centrifuged again at 30,000×g and the final tissue sample is frozen until use. The tissue is resuspended 1:20 (wt/vol) in 0.05 M Tris HCl buffer containing 100 mM NaCl.
(§3) Incubations are carried out a […] and contain 0.4 ml of tissue sample, 0.5 nM ^3H-YM 09151-2 (Nemonapride, cis-5-Chloro-2-methoxy-4-(methylamino)-N-(2-methyl-2-(phenylmethyl)-3-pyrrolidinyl)benzamide) and the compound of interest in a total incubation of 1.0 ml. Nonspecific binding is defined as that binding found in the presence of […] spiperone; without further additions, nonspecific binding is less than 20% of total binding.

[2] = target: T2, D2 receptors from human (Homo sapiens, UniProt P14416); experiment: D2 receptor binding assay (3H-YM 09151-2 displacement); details: COS cells containing recombinantly produced human D2 receptors; 0.5 nM 3H-YM 09151-2
T2 construct: expressed in transfected cells; host or cells: COS cells
T2 sequence (P14416 whole entry): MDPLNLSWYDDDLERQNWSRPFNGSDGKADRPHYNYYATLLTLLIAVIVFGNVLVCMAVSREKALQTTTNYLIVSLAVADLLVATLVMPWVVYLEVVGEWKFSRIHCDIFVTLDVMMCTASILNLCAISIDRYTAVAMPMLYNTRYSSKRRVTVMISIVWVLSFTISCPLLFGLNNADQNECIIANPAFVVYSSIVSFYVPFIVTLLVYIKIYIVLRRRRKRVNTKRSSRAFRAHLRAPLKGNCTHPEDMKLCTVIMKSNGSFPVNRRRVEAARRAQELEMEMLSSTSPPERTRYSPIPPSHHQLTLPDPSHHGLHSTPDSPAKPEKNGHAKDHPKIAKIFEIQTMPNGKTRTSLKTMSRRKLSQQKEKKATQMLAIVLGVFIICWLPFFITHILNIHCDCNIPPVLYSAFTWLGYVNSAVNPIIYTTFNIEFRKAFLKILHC
Procedure: as §1, §2, §3

Row | Compound | melting point | Ki [1] [nM] | Ki [2] [nM]
1 | Cc1cnc(N2CCN(CCNc3nc4ccccc4s3)CC2)nc1.O=C(O)/C=C/C(=O)O.O=C(O)/C=C/C(=O)O | 167 to 170 °C | – | –
2 | O=C(O)/C=C/C(=O)O.O=C(O)/C=C/C(=O)O.c1ccc(N2CCN(CCNc3nc4ccccc4s3)CC2)cc1 | 131 to 132 °C | – | –
3 | O=C(O)/C=C/C(=O)O.O=C(O)/C=C/C(=O)O.c1ccc(N2CCN(CCNc3nc4ccccc4s3)CC2)nc1 | 159 to 160 °C | – | –
4 | Cl.Cl.Clc1ccc(N2CCN(CCNc3nc4ccccc4s3)CC2)cc1 | 230 to 232 °C | – | –
5 | Cl.Cl.Fc1ccc(N2CCN(CCNc3nc4ccccc4s3)CC2)cc1 | 229 to 231 °C | – | –
6 | COc1ccccc1N1CCN(CCNc2nc3ccccc3s2)CC1.O=C(O)/C=C/C(=O)O.O=C(O)/C=C/C(=O)O | 101 to 103 °C | – | –
7 | Br.COc1ccccc1N1CCN(CCCNc2nc3ccccc3s2)CC1 | 195 to 197 °C | – | –
8 | Br.COc1ccccc1N1CCN(CCNc2nc3c(OC)cccc3s2)CC1 | 171 to 173 °C | – | –
9 | Br.COc1ccccc1N1CCN(CCNc2nc3c(C)cccc3s2)CC1 | 226 to 227 °C | – | –
10 | Br.COc1ccccc1N1CCN(CCNc2nc3c(Cl)cccc3s2)CC1 | 194 to 195 °C | – | –
11 | Br.CCOc1ccc2nc(NCCN3CCN(c4ccccc4OC)CC3)sc2c1 | 227 to 228 °C | – | –
12 | Br.COc1ccccc1N1CCN(CCNc2nc3ccc(S(C)(=O)=O)cc3s2)CC1 | 190 to 196 °C | – | –
13 | Fc1ccc2nc(NCCN3CCN(c4ncccn4)CC3)sc2c1.O=C(O)/C=C/C(=O)O.O=C(O)/C=C/C(=O)O | 179 to 180 °C | – | –
14 | Fc1ccc2nc(NCCN3CCN(Cc4ccccc4)CC3)sc2c1.O=C(O)/C=C/C(=O)O.O=C(O)/C=C/C(=O)O | 228 to 229 °C | – | –
15 | Br.Fc1ccc2nc(NCCN3CCN(Cc4ccc(Cl)cc4)CC3)sc2c1 | 238 to 240 °C | – | –
16 | Br.CCOc1ccccc1N1CCN(CCNc2nc3ccc(F)cc3s2)CC1 | 235 to 237 °C | – | –
17 | Br.Fc1cnc(N2CCN(CCNc3nc4ccc(F)cc4s3)CC2)nc1 | 279 to 281 °C | – | –
18 | Br.Cc1cnc(N2CCN(CCNc3nc4ccc(F)cc4s3)CC2)nc1 | 240 to 250 °C | – | –
19 | Br.Fc1ccc2nc(NCCN3CCN(c4ccccn4)CC3)sc2c1 | 259 to 260 °C | – | –

Row | Compound | melting point | Ki [1] [nM] | Ki [2] [nM]
20 | Br.Fc1ccc2nc(NCCN3CCN(c4cccc(C(F)(F)F)c4)CC3)sc2c1 | 259 to 261 °C | – | –
21 | Br.Fc1ccc2nc(NCCN3CCN(c4ccccc4)CC3)sc2c1 | 268 to 270 °C | – | –
22 | Br.Fc1ccc(N2CCN(CCNc3nc4ccc(F)cc4s3)CC2)cc1 | 270 to 271 °C | – | –
23 | Br.CC(C)Oc1ccccc1N1CCN(CCNc2nc3ccc(F)cc3s2)CC1 | 216 to 217 °C | – | –
24 | Cl.c1cnc(N2CCN(CCNc3nc4ccccc4o3)CC2)nc1 | 197 to 202 °C | – | –
25 | Br.COc1ccccc1N1CCN(CCNc2nc3ccccc3[nH]2)CC1 | 215 to 216 °C | – | –
26 | Br.c1ccc(N2CCN(CCNc3nc4ccccc4[nH]3)CC2)cc1 | 241 to 247 °C | – | –
27 | Br.c1ccc(N2CCN(CCNc3nc4ccccc4[nH]3)CC2)nc1 | 290 to 291 °C | – | –
28 | Br.COc1ccccc1N1CCN(CCNc2nc3ccccc3n2C)CC1 | 273 to 274 °C | – | –
29 | Br.CC(C)Oc1ccccc1N1CCN(CCNc2nc3ccccc3n2C)CC1 | 285 °C (dec.) | – | –
30 | Br.CCn1c(NCCN2CCN(c3ccccc3OC)CC2)nc2ccccc21 | 109 to 110 °C | – | –
31 | Br.CCn1c(NCCN2CCN(c3ccccc3)CC2)nc2ccccc21 | 270 °C (dec.) | – | –
32 | O=C(O)/C=C/C(=O)O.O=C(O)/C=C/C(=O)O.c1cnc(N2CCN(CCNc3nc4ccccc4s3)CC2)nc1 | 161 to 163 °C | – | –
33 | Fc1cnc(N2CCN(CCNc3nc4ccccc4s3)CC2)nc1.O=C(O)/C=C/C(=O)O.O=C(O)/C=C/C(=O)O | 174 to 175 °C | – | –
34 | Br.Cn1c(NCCN2CCN(c3cccc(C(F)(F)F)c3)CC2)nc2ccccc21 [Compound 1, 1-(3-Trifluoromethylphenyl)-4-(2-[1-methylbenzimidazol-2-yl]aminoethyl)piperazine hydrobromide] | 283 °C (dec.) | 3 | > 10000
35 | COc1ccccc1N1CCN(CCNc2nc3ccc(F)cc3s2)CC1 [Compound 2, 1-(2-Methoxyphenyl)-4-(2-[6-fluorobenzothiazol-2-ylamino]ethyl)piperazine difumarate] | – | 1 | 175
36 | Cl.c1ccc(N2CCN(CCNc3nc4ccccc4o3)CC2)nc1 [Compound 3, 1-(Pyridin-2-yl)-4-(2-[benzoxazol-2-yl]aminoethyl)piperazine hydrochloride] | 255 to 265 °C | 11 | > 10000
37 | Fc1cnc(N2CCN(CCCCNc3nc4ccccc4s3)CC2)nc1 [Compound 6] | – | 6 | 1640
